Measured values published in patent US11155571B2, “Salt of pyranose-substituted heterocyclic compound, preparation method therefor and use thereof” (Yabao Pharmaceutical Group Co., Ltd., priority 2018, dated 2021).

Test: Solubility in water
Type: physicochemical

A solubility of less than 2300 µg/mL was found for Cc1cccc2c1c(Cc1ccc(OCCCN3CCCC4(CCN(C(=O)CNC(=O)NCC(C)C)CC4)C3)cc1)cn2C1O[C@H](CO)[C@@H](O)[C@H](O)[C@H]1O (stereo partly shown) [compound represented by formula (II)] in this work.
